In PubChem BioAssay (NCI):
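96-well plates; 48 h exposure; 5 concentrations. Endpoints by linear interpolation between flanking doses. Not reached: highest tested concentration assigned. TGI: total growth inhibition.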

Columns and labels:
Experiment in all cases: DTP human tumour cell line panel, 48 h
[1] = tested on: SF-539 CNS
[2] = tested on: MDA-N
[3] = tested on: SN12C renal
[4] = tested on: NCI-H522 lung
[5] = tested on: MDA-MB-231 breast
[6] = tested on: BT-549 breast
[7] = tested on: DU-145 prostate
[8] = tested on: NCI-H460 lung
[9] = tested on: SR leukemia
[10] = tested on: A498 renal
[11] = tested on: HOP-92 NSCLC
[12] = tested on: UO-31 renal
[13] = tested on: KM12 colon
[14] = tested on: HL-60(TB) leukemia
[15] = tested on: EKVX NSCLC
[16] = tested on: UACC-62 melanoma
[17] = tested on: UACC-257 melanoma
[18] = tested on: SNB-19 CNS
[19] = tested on: MCF7 breast
[20] = tested on: MOLT-4 leukemia
[21] = tested on: COLO 205 colon
[22] = tested on: MALME-3M melanoma
[23] = tested on: SK-MEL-2 melanoma
[24] = tested on: SF-295 CNS
[25] = tested on: LOX IMVI melanoma
[26] = tested on: HS 578T breast
[27] = tested on: SW-620 colon
[28] = tested on: HOP-62 NSCLC
[29] = tested on: OVCAR-4 ovarian
[30] = tested on: SK-OV-3 ovarian
[31] = tested on: MDA-MB-435
[32] = tested on: ACHN renal
[33] = tested on: K-562 leukemia
[34] = tested on: NCI-H226 lung
[35] = tested on: 786-0 renal
[36] = tested on: CCRF-CEM leukemia
[37] = tested on: RXF 393 renal
[38] = tested on: HT29 colon
[39] = tested on: M14 melanoma
[40] = tested on: A549 NSCLC
[41] = tested on: NCI-H23 lung
[42] = tested on: PC-3 prostate
[43] = tested on: HCT-116 colon
[44] = tested on: SNB-75 CNS
[45] = tested on: HCC-2998 colon
[46] = tested on: NCI/ADR-RES ovarian
[47] = tested on: OVCAR-3 ovarian
[48] = tested on: SK-MEL-28 melanoma
[49] = tested on: CAKI-1 renal
[50] = tested on: SF-268 CNS
[51] = tested on: TK-10 renal
[52] = tested on: IGROV1 ovarian
[53] = tested on: RPMI-8226 leukemia
[54] = tested on: U251 CNS
[55] = tested on: T-47D breast
[56] = tested on: SK-MEL-5 melanoma
[57] = tested on: HCT-15 colon
[58] = tested on: OVCAR-8 ovarian
[59] = tested on: OVCAR-5 ovarian
[60] = tested on: DMS 114 small cell lung
[61] = tested on: LXFL 529 NSCLC

In the case of O=C1C(N2CCCC2)=CC(=O)c2c(O)c(N3CCCC3)c(Cl)c(O)c21, the TGI [1] is reported as over 10 µM, the TGI [2] is reported as over 10 µM and the TGI [3] is reported as over 10 µM. For the same molecule, the TGI [4] was over 10 µM, the TGI [5] was over 10 µM and the TGI [6] was over 10 µM. The TGI [7] was over 10 µM, the TGI [8] was over 10 µM and the TGI [9] was over 10 µM. It also gave a TGI [10] of over 10 µM, a TGI [11] of over 10 µM and a TGI [12] of over 10 µM. The TGI [13] was over 10 µM, the TGI [14] was over 10 µM and the TGI [15] was over 10 µM. The TGI [16] was over 10 µM, the TGI [17] was over 10 µM and the TGI [18] was over 10 µM. It also gave a TGI [19] of over 10 µM, a TGI [20] of over 10 µM and a TGI [21] of over 10 µM. The TGI [22] was over 10 µM, the TGI [23] was over 10 µM and the TGI [24] was over 10 µM. For the same molecule, the TGI [25] was over 10 µM, the TGI [26] was over 10 µM and the TGI [27] was over 10 µM. For the same molecule, the TGI [28] was over 10 µM, the TGI [29] was over 10 µM and the TGI [30] was over 10 µM. It also gave a TGI [31] of over 10 µM, a TGI [32] of over 10 µM and a TGI [33] of over 10 µM. It also gave a TGI [34] of over 10 µM, a TGI [35] of over 10 µM and a TGI [36] of over 10 µM. For the same molecule, the TGI [37] was over 10 µM, the TGI [38] was over 10 µM and the TGI [39] was over 10 µM. The TGI [40] was over 10 µM, the TGI [41] was over 10 µM and the TGI [42] was over 10 µM. For the same molecule, the TGI [43] was over 10 µM, the TGI [44] was over 10 µM and the TGI [45] was over 10 µM. The TGI [46] was over 10 µM, the TGI [47] was over 10 µM and the TGI [48] was over 10 µM. For the same molecule, the TGI [49] was over 10 µM, the TGI [50] was over 10 µM and the TGI [51] was over 10 µM. It also gave a TGI [52] of over 10 µM, a TGI [53] of over 10 µM and a TGI [54] of over 10 µM. The TGI [55] was over 10 µM and the TGI [56] was over 10 µM.

Work on c1ccc(C2=NC3(CCCCC3)N(c3nc4ccccc4s3)N2)nc1 yielded a TGI [1] of over 100 µM, a TGI [57] of over 100 µM and a TGI [2] of 86.5 µM. For the same molecule, the TGI [3] was 69.9 µM, the TGI [4] was over 100 µM and the TGI [5] was 64.7 µM. For the same molecule, the TGI [6] was 58.2 µM, the TGI [7] was over 100 µM and the TGI [8] was 32 µM. The TGI [9] was 26.8 µM, the TGI [10] was over 100 µM and the TGI [11] was over 100 µM. The TGI [12] was over 100 µM, the TGI [13] was 75.9 µM and the TGI [14] was 80.3 µM. The TGI [15] was over 100 µM, the TGI [16] was over 100 µM and the TGI [17] was 43.4 µM. The TGI [18] was over 100 µM, the TGI [19] was over 100 µM and the TGI [20] was over 100 µM. It also gave a TGI [58] of over 100 µM, a TGI [21] of 41.4 µM and a TGI [22] of over 100 µM. The TGI [23] was 42.6 µM, the TGI [24] was over 100 µM and the TGI [25] was 51.6 µM. It also gave a TGI [26] of over 100 µM, a TGI [27] of over 100 µM and a TGI [59] of over 100 µM. The TGI [28] was over 100 µM, the TGI [29] was over 100 µM and the TGI [30] was over 100 µM. It also gave a TGI [31] of 63.6 µM, a TGI [32] of over 100 µM and a TGI [33] of over 100 µM. It also gave a TGI [34] of 65.6 µM, a TGI [35] of 42.2 µM and a TGI [36] of 87.2 µM. It also gave a TGI [37] of 57.7 µM, a TGI [38] of 58 µM and a TGI [39] of 59.2 µM. The TGI [40] was over 100 µM, the TGI [41] was 84.8 µM and the TGI [42] was 46.9 µM. For the same molecule, the TGI [43] was over 100 µM, the TGI [44] was 76.6 µM and the TGI [46] was 65.3 µM. It also gave a TGI [47] of 51.2 µM, a TGI [48] of over 100 µM and a TGI [49] of 91.5 µM. The TGI [50] was over 100 µM, the TGI [51] was 52.8 µM and the TGI [52] was over 100 µM. It also gave a TGI [53] of 52.8 µM, a TGI [54] of 49 µM and a TGI [55] of 49.6 µM. The TGI [56] was 40.6 µM.

For O=c1[nH]c(=O)n(C2CC(O)C(CO)O2)cc1I (configuration not stated), the TGI [1] was over 100 µM, the TGI [57] was over 100 µM and the TGI [2] was over 100 µM. The TGI [3] was over 100 µM, the TGI [4] was over 100 µM and the TGI [5] was over 100 µM. For the same molecule, the TGI [6] was over 100 µM, the TGI [7] was over 100 µM and the TGI [8] was over 100 µM. For the same molecule, the TGI [9] was over 100 µM, the TGI [10] was over 100 µM and the TGI [11] was over 100 µM. For the same molecule, the TGI [12] was over 100 µM, the TGI [13] was over 100 µM and the TGI [14] was over 100 µM. The TGI [15] was over 100 µM, the TGI [16] was over 100 µM and the TGI [17] was over 100 µM. For the same molecule, the TGI [18] was over 100 µM, the TGI [19] was over 100 µM and the TGI [20] was over 100 µM. It also gave a TGI [58] of over 100 µM, a TGI [21] of over 100 µM and a TGI [22] of over 100 µM. For the same molecule, the TGI [23] was over 100 µM, the TGI [24] was over 100 µM and the TGI [25] was over 100 µM. It also gave a TGI [26] of over 100 µM, a TGI [27] of over 100 µM and a TGI [59] of over 100 µM. The TGI [28] was over 100 µM, the TGI [29] was over 100 µM and the TGI [30] was over 100 µM. The TGI [31] was over 100 µM, the TGI [32] was over 100 µM and the TGI [33] was over 100 µM. For the same molecule, the TGI [34] was over 100 µM, the TGI [35] was over 100 µM and the TGI [36] was over 100 µM. The TGI [37] was over 100 µM, the TGI [38] was over 100 µM and the TGI [39] was over 100 µM. The TGI [40] was over 100 µM, the TGI [41] was over 100 µM and the TGI [42] was over 100 µM. It also gave a TGI [43] of over 100 µM, a TGI [44] of over 100 µM and a TGI [45] of over 100 µM. The TGI [46] was over 100 µM, the TGI [47] was over 100 µM and the TGI [48] was over 100 µM. The TGI [49] was over 100 µM, the TGI [50] was over 100 µM and the TGI [51] was over 100 µM. The TGI [52] was over 100 µM, the TGI [53] was over 100 µM and the TGI [54] was over 100 µM. For the same molecule, the TGI [55] was over 100 µM and the TGI [56] was over 100 µM.

Work on C=CCC1OC(C)(C)Oc2ccc(OCOCCOC)cc21 (configuration not stated) yielded a TGI [1] of over 100 µM, a TGI [57] of over 100 µM and a TGI [3] of over 100 µM. The TGI [8] was over 100 µM, the TGI [10] was over 100 µM and the TGI [11] was over 100 µM. The TGI [12] was over 100 µM, the TGI [13] was over 100 µM and the TGI [15] was over 100 µM. For the same molecule, the TGI [16] was over 100 µM, the TGI [17] was over 100 µM and the TGI [18] was over 100 µM. For the same molecule, the TGI [60] was over 100 µM, the TGI [20] was over 100 µM and the TGI [58] was over 100 µM. The TGI [22] was over 100 µM, the TGI [23] was over 100 µM and the TGI [24] was over 100 µM. For the same molecule, the TGI [25] was over 100 µM, the TGI [27] was over 100 µM and the TGI [61] was over 100 µM. The TGI [59] was over 100 µM, the TGI [28] was over 100 µM and the TGI [29] was over 100 µM. The TGI [30] was over 100 µM, the TGI [32] was over 100 µM and the TGI [33] was over 100 µM. It also gave a TGI [35] of over 100 µM, a TGI [37] of over 100 µM and a TGI [38] of over 100 µM. For the same molecule, the TGI [39] was over 100 µM, the TGI [40] was over 100 µM and the TGI [41] was over 100 µM. For the same molecule, the TGI [43] was over 100 µM, the TGI [44] was over 100 µM and the TGI [45] was over 100 µM. The TGI [47] was over 100 µM, the TGI [48] was over 100 µM and the TGI [49] was over 100 µM. The TGI [50] was over 100 µM, the TGI [51] was over 100 µM and the TGI [52] was over 100 µM. For the same molecule, the TGI [54] was over 100 µM and the TGI [56] was over 100 µM.
